Results: PubChem BioAssay (NCI)
Where “and” joins values, the source holds several entries; their conditions need not be identical. Equal entries are not always repeated.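 Exposure lasted 48 hours, with cells grown in 96-well plates and compounds tested at five concentrations. At the GI50, growth is halved. TGI: concentration producing complete growth inhibition.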

Assays:
Assay in all cases: NCI anticancer screen, dose series, 48 h
786-0 renal = tested on: 786-0 renal
A498 renal = tested on: A498 renal
A549 NSCLC = tested on: A549 NSCLC
HL-60(TB) leukemia = tested on: HL-60(TB) leukemia
MDA-MB-435 = tested on: MDA-MB-435
NCI-H522 lung = tested on: NCI-H522 lung
SF-539 CNS = tested on: SF-539 CNS
SK-MEL-2 melanoma = tested on: SK-MEL-2 melanoma
UACC-257 melanoma = tested on: UACC-257 melanoma
MALME-3M melanoma = tested on: MALME-3M melanoma

SMILES	TGI (786-0 renal)	TGI (A498 renal)	TGI (A549 NSCLC)	TGI (HL-60(TB) leukemia)	TGI (MDA-MB-435)	TGI (NCI-H522 lung)	TGI (SF-539 CNS)	TGI (SK-MEL-2 melanoma)	TGI (UACC-257 melanoma)	GI50 (786-0 renal)	GI50 (A498 renal)	GI50 (A549 NSCLC)	GI50 (HL-60(TB) leukemia)	GI50 (MALME-3M melanoma)	TGI (MALME-3M melanoma)	GI50 (MDA-MB-435)	GI50 (NCI-H522 lung)	GI50 (SF-539 CNS)	GI50 (SK-MEL-2 melanoma)	GI50 (UACC-257 melanoma)
CCc1[nH]c(=O)nc(N)c1-c1ccc(N2CCCCC2)c([N+](=O)[O-])c1	> 100 µM	> 100 µM	> 100 µM	> 100 µM	> 100 µM	> 100 µM	> 100 µM	> 100 µM	> 100 µM											
CCOC(=O)c1c(CN2CCN(c3ccccc3)CC2)n(-c2ccccc2)c2cc(Br)c(O)cc12	21.5 µM	26.8 µM	> 100 µM	> 100 µM	34.4 µM	44.5 µM	34.9 µM	36.2 µM	50.9 µM	5.23 µM	12.7 µM	3.58 µM	4.12 µM	16.5 µM	40.1 µM	11.3 µM	16.1 µM	15.5 µM	17.2 µM	18.2 µM
CCN(CC)c1ccc(C(=N)c2ccc(N(CC)CC)cc2)cc1	2.05 µM	2.38 µM	5.94 µM	1.13 µM	1.3 µM	0.765 µM	2.43 µM	1.52 µM	2.25 µM	0.646 µM	0.575 µM	0.625 µM	0.276 µM	0.714 µM	2.48 µM	0.318 µM	0.193 µM	0.83 µM	0.423 µM	0.744 µM
Cc1cc(SCC(=O)c2ccccc2)nc2ccccc12	> 100 µM	> 100 µM	> 100 µM	> 100 µM	> 100 µM	> 100 µM	> 100 µM	> 100 µM	> 100 µM						> 100 µM					
O=C(N/N=C/c1cccc(O)c1O)c1ccccc1	> 100 µM	65.4 µM	> 100 µM	1.94 µM	> 100 µM	2.25 µM	15.3 µM	> 100 µM	7.05 µM	1.48 µM	6.28 µM	2.01 µM	0.301 µM	1.35 µM	35.8 µM	1.88 µM	0.323 µM	0.642 µM	11.7 µM	0.895 µM
CCOC(=O)Sc1ncnc2nc[nH]c12	> 100 µM	> 100 µM	> 100 µM	6.7 µM	> 100 µM	> 100 µM	> 100 µM	> 100 µM	> 100 µM	2.31 µM	14.4 µM	25.9 µM	1.42 µM	27.1 µM	> 100 µM	1.47 µM	3.33 µM	2.35 µM	6.15 µM	7.2 µM
NC(=S)N/N=C/c1ccc(OC(=O)COc2ccc(Cl)cc2)cn1	9.98 µM	71 µM	> 100 µM	20.8 µM	> 100 µM	40 µM	22.8 µM	> 100 µM	72.1 µM	3.64 µM	11.9 µM	34.5 µM	0.954 µM	12.2 µM	> 100 µM	5.89 µM	0.718 µM	3.64 µM	9.69 µM	17.9 µM
CC1CN1CC(O)C(O)CN1CC1C (stereo not drawn)	> 41.2 µM	16.8 µM	33 µM	20.1 µM	24.8 µM	7.08 µM	45.4 µM	> 64.2 µM	23.3 µM	0.831 µM	3.61 µM	2.08 µM	0.305 µM	2.13 µM	13.7 µM	4.93 µM	1.72 µM	1.84 µM	8.58 µM	3.12 µM
c1ccc(C2=NNC3c4ccccc4-c4ccccc4N3C2)cc1 (stereo not drawn)	> 100 µM	98.5 µM	> 100 µM	6.91 µM	68.1 µM	80.3 µM	50.5 µM	45.8 µM	61.6 µM						83.1 µM					
CCC1(O)C(=O)OCc2c1cc1n(c2=O)Cc2cc3ccc(C=O)cc3nc2-1 (stereo not drawn)	9.18 µM and 4.95 µM	13.5 µM and 19.5 µM	50 µM and 18.8 µM	5.99 µM	31.2 µM and 35.7 µM	15.4 µM and 13.8 µM		40.6 µM and 39.2 µM	23.7 µM and 43.7 µM	0.45 µM	5.39 µM	7.43 µM		13.2 µM	50 µM and 41.2 µM	5.9 µM	6.8 µM and 2.9 µM	1.69 µM	17.6 µM	7.73 µM
NCCCC[C@@H]1NC(=O)[C@H]2CCCN2C(=O)[C@H](Cc2ccccc2)NC(=O)[C@H](Cc2ccccc2)CNC1=O	> 100 µM	> 100 µM	> 100 µM	> 100 µM	> 100 µM	> 100 µM	> 100 µM	> 100 µM	> 100 µM	> 100 µM	> 100 µM	> 100 µM	> 100 µM	> 100 µM	> 100 µM	> 100 µM	> 100 µM	> 100 µM	> 100 µM	> 100 µM
Clc1nc(Cl)c2ncn(Cc3cccc(COc4cccc(OCc5cccc(Cn6cnc7c(Cl)nc(Cl)nc76)c5)c4)c3)c2n1	> 100 µM	> 100 µM	> 100 µM	31.3 µM	> 100 µM	> 100 µM	> 100 µM	> 100 µM	> 100 µM	74.8 µM	> 100 µM	> 100 µM	4.61 µM	> 100 µM	> 100 µM	13.8 µM	41.1 µM	> 100 µM	17.1 µM	13.5 µM
CC/C=C\C[C@@H]1C/C=C2/C(=O)C=C[C@H]2C/C=C\CCCC(=O)O1	2.18 µM	3.3 µM	2.2 µM	0.716 µM	0.845 µM	0.737 µM	2.97 µM	4.23 µM	3.39 µM	0.818 µM	1.81 µM	0.526 µM	0.277 µM	1.18 µM	4.65 µM	0.25 µM	0.231 µM	0.533 µM	1.8 µM	1.37 µM
CCCCN=C(N)c1ccc(OCCSCCOc2ccc(C(N)=NCCCC)cc2)cc1	> 100 µM	> 100 µM	> 100 µM	30 µM	> 100 µM	12.8 µM	> 100 µM	21.9 µM	71.8 µM	> 100 µM	15.2 µM	4.47 µM	5.97 µM	2.97 µM	26.4 µM	3.35 µM	2.25 µM	5.59 µM	5.36 µM	4.4 µM
COc1cc(NC(=O)c2cc(O)c(CC=C(C)C)c(O)c2)cc2c1O[C@]1(C)CC[C@@H](O)C(C)(C)[C@H]1C2	7.24 µM	7.94 µM	23.2 µM	18.7 µM	23.7 µM	12.3 µM	4.02 µM	15.1 µM	15.7 µM	0.567 µM	1.21 µM	6.87 µM	1.88 µM	6.24 µM	24.3 µM	3.73 µM	3.42 µM	0.659 µM	1.33 µM	3.37 µM
Nc1ncc(-c2cnn(CCO)c2)c2scc(-c3ccc(NC(=O)Nc4cccc(F)c4)cc3)c12	6.69 µM	0.663 µM	1.5 µM	5.09 µM	1.83 µM	2.29 µM		1.66 µM	1.89 µM	0.45 µM	0.122 µM	0.125 µM	0.499 µM	0.132 µM	1.38 µM	0.209 µM	0.449 µM		0.364 µM	0.287 µM
COc1cc(C2=NN(C(C)=O)C(c3ccc(OC(C)=O)cc3OC(C)=O)O2)c(OC(C)=O)c2ccccc12 (stereo not drawn)	12.7 µM	11.6 µM	28.4 µM	2.94 µM	39 µM	11 µM	3.48 µM	49.4 µM	6.86 µM	0.902 µM	1.59 µM	1.57 µM	0.671 µM	1.83 µM	20.5 µM	1.38 µM	1.19 µM	0.697 µM	10.8 µM	0.981 µM
COC(=O)Nc1nc2ccc(Oc3ccc(NC(=O)Nc4ccccc4)cc3)cc2[nH]1	5.05 µM	4.97 µM	5.32 µM	0.295 µM	0.12 µM	0.667 µM	0.878 µM	2.19 µM	> 14.8 µM	0.18 µM	0.141 µM	0.533 µM	0.0654 µM	0.14 µM	> 11.4 µM	0.0474 µM	0.0686 µM	0.0885 µM	0.109 µM	0.167 µM
COc1cc[nH]c1/C=C1\C(=O)Nc2ccccc21	> 25 µM	> 25 µM	> 25 µM	> 25 µM	> 25 µM	> 25 µM	> 25 µM	15.7 µM	> 25 µM	15.9 µM	5.34 µM	11.1 µM	6.58 µM	9.88 µM	> 25 µM	9.01 µM	12.7 µM	7.02 µM	3.55 µM	17.3 µM
COc1ccc2c(c1)C=C([N+](=O)[O-])C(C1OC(C)(C)OC1C1COC(C)(C)O1)O2 (stereo not drawn)	26.5 µM	33.3 µM	41.9 µM	5.49 µM	14.8 µM	2.29 µM	19.3 µM	4.36 µM	6.16 µM						6.15 µM					
O=C1c2ccccc2-c2c1c1ccccc1c(=O)n2Cc1ccccc1	> 100 µM	> 100 µM	> 100 µM	> 100 µM	> 100 µM	> 100 µM	> 100 µM	> 100 µM	> 100 µM						> 100 µM					
CN/N=C(/CCN1CCCC1)CC(c1ccccc1)c1c(O)c2ccccc2oc1=O (stereo not drawn)	> 100 µM	> 100 µM	> 100 µM	> 100 µM	> 100 µM	> 100 µM	> 100 µM	> 100 µM	> 100 µM						> 100 µM					
Fc1cc(F)c(COc2cc(Cn3cnc4c(Cl)nc(Cl)nc43)ccc2C23CC4CC(CC(C4)C2)C3)cc1F	34.9 µM	> 100 µM	76.7 µM	4.58 µM	33 µM	5.56 µM	32.3 µM	56.1 µM	39.3 µM	19.4 µM	99.2 µM	28 µM	1.99 µM	1.92 µM	4.75 µM	17.3 µM	2.29 µM	17.9 µM	21 µM	21 µM
NC(N)=NCCCn1c2c(c3ccccc3c1=O)C(=O)c1ccccc1-2	3.29 µM		> 100 µM	81.3 µM	71.5 µM	11.1 µM	2.14 µM	33.6 µM		0.681 µM		27.1 µM	23.9 µM	18.6 µM	45.1 µM	25.9 µM	2.45 µM	0.369 µM	19.5 µM	
COc1ccc(OC)c(/C=C/C(=O)N/N=C/c2ccc(Cl)cc2)c1	> 100 µM	36.6 µM	> 100 µM	0.483 µM	0.106 µM	5.72 µM	11.1 µM	> 100 µM	> 100 µM	0.143 µM	0.111 µM	0.242 µM	0.0785 µM			0.0263 µM	0.0298 µM	0.157 µM	1.06 µM	36.5 µM
CCC#CC[C@H]1C/C=C2/C(=O)C=C[C@@H]2C/C=C\CCCC(=O)O1	2.4 µM	2.49 µM	4.03 µM	4.23 µM	2.18 µM	1.83 µM	7.67 µM	3.52 µM		1.06 µM	1.08 µM	1.24 µM	1.07 µM	1.13 µM	3.24 µM	0.68 µM	0.663 µM	1.94 µM	1.17 µM	
COc1cc2oc(-c3ccc(O)cc3)cc(=O)c2c(OC)c1OC	> 100 µM	> 100 µM	> 100 µM	> 100 µM	> 100 µM	> 100 µM	> 100 µM		> 100 µM						> 100 µM					
CC(=O)OC1CC(O)C23COC(O)C1(C)C2CC(O)C1(C)C3C(=O)C(O)C2(C)C(c3ccoc3)CC3OC321 (stereo not drawn)	> 64.2 µM	> 100 µM	> 100 µM	> 100 µM	> 100 µM	> 100 µM	> 100 µM	> 100 µM	5.51 µM	0.0897 µM	> 100 µM	0.0674 µM	< 0.01 µM			< 0.0152 µM	0.401 µM	0.14 µM		0.16 µM
